What was measured:
D2 receptor = D2 receptor (Homo sapiens, UniProt P14416); experiment: Serotonin and dopamine receptor binding: D2
5-HT2A receptor = 5-HT2A receptor (Homo sapiens, UniProt P28223); experiment: Serotonin and dopamine receptor binding: 5-HT2A
5-HT2C receptor = target: T1, 5-HT2C receptor (Homo sapiens, UniProt P28335); experiment: Serotonin and dopamine receptor binding: 5-HT2C
T1 sequence (P28335 33-458): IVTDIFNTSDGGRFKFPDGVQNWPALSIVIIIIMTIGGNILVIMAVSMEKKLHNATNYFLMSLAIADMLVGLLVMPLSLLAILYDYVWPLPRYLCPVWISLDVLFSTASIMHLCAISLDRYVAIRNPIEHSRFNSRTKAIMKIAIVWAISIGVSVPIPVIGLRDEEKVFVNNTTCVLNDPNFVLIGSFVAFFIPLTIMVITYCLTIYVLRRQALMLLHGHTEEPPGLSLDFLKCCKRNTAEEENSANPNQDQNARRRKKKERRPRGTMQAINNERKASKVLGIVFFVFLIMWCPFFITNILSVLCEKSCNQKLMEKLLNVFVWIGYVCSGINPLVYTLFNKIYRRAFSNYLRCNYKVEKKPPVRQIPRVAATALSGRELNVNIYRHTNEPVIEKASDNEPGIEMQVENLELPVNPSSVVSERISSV

rats [1] = experiment: Amphetamine-induced motor activity; format: in vivo
Procedure: Effects of compound 2 on amphetamine-induced motor activity (FIG. 4 Graph). All rats were habituated to the motor box for 30 min followed by injection of compound 2 or vehicle. After 30 min all rats were injected with 1 mg/kg, i.p. amphetamine (a dose that is known to elevate locomotion in rats) and their motor activity was recorded for 2 hr.

rats [2] = experiment: Pilot dose-selection study (catalepsy, locomotion); format: in vivo
rats [3] = experiment: Amphetamine-induced sensorimotor gating deficits (prepulse inhibition, PPI); format: in vivo; conditions: 1 mg/kg ip, amphetamine 3 mg/kg ip, 120 dB pulse, 71 dB pre-pulse, p<0.01
Procedure: Effects of compound 2 on amphetamine-induced sensorimotor gating deficits (FIG. 4 Table). Once the compound 2 dose range was determined by motor assessments, a separate group of rats were used to study PPI. Rats were treated with vehicle (75% DMSO) or DDD-016 in the DMSO vehicle; 30 min later amphetamine (3 mg/kg ip) or saline was administered, and the startle session was initiated after an additional 30 min. (The 3 mg/kg dose of amphetamine is sufficient to induced robust deficits in PPI; 1 mg/kg is subtrheshold; data not shown.) Shown are startle data from a 120 dB pulse, preceded 100 ms by a 71 dB pre-pulse.

D2 receptor, sequence (P14416 whole entry): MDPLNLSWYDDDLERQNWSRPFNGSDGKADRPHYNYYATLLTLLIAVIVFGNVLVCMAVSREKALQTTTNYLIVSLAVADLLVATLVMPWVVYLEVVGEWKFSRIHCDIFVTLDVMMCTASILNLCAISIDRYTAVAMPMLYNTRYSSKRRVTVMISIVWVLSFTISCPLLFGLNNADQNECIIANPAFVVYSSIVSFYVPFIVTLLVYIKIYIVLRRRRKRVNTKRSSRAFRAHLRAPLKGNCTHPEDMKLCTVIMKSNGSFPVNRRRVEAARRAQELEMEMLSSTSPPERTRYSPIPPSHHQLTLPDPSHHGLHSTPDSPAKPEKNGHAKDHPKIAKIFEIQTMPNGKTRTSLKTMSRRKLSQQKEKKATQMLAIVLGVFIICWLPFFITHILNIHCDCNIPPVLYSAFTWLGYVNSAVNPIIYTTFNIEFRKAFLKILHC
5-HT2A receptor, sequence (P28223 whole entry): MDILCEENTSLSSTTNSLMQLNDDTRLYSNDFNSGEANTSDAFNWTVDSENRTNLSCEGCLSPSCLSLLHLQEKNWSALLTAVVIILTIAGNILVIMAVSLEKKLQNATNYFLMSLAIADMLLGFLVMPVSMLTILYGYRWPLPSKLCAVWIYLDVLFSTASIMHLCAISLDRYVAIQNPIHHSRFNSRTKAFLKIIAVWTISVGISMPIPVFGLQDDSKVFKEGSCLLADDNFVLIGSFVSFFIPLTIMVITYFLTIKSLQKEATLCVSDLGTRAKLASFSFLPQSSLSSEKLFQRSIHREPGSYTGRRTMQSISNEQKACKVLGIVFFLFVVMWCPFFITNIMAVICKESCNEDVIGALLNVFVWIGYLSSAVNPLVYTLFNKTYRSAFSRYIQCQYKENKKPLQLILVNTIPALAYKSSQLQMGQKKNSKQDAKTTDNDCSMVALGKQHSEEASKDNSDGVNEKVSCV

SMILES | IC50 (D2 receptor) | IC50 (5-HT2A receptor) | IC50 (5-HT2C receptor) | horizontal activity, comparison of doses (rats [1]; 3 mg/kg vs 10 mg/kg, ANOVA with post hoc Newman Keuls, p<0.05) | effect on amphetamine-induced motor activity (rats [1]; 10 mg/kg, 30 min before 1 mg/kg i.p. amphetamine, activity recorded 2 hr) | locomotor effect (rats [2]; 3 mg/kg, vs vehicle (75% DMSO)) | locomotor effect (rats [2]; 10 mg/kg) | catalepsy (rats [2]; 30 mg/kg ip, without a loss of right reflex) | effect on amphetamine-induced % PPI deficit (rats [3]) | receptor binding activity (in words) (5-HT2A receptor; stated jointly for 5-HT2A, 5-HT2C and D2 receptors)
CN1CC[C@H]2[C@@H](C1)c1cccc3c1N2c1ccccc1CS3 [Compound 3] | 500 nM | 5 nM | 15 nM | – | – | – | – | – | – | –
CN1CCc2c(c3cccc4c3n2-c2ccccc2CS4)C1 [Compound 2] | 80 nM | 1 nM | 10 nM | difference between 3 mg/kg and 10 mg/kg | trend for 10 mg/kg of 2 to reduce the effects of amphetamine | did not differentiate from vehicle | Some locomotor reduction | robust catalepsy | blunted this deficit | –
CN1CC[C@@H]2[C@@H](C1)c1cccc3c1N2c1ccccc1CS3 [Compound 4] | 20 nM | 3 nM | 5 nM | – | – | – | – | – | – | most potent amongst all

Continued, in another order:

IC50 (D2 receptor) | IC50 (5-HT2A receptor) | IC50 (5-HT2C receptor) | SMILES | horizontal activity, comparison of doses (rats [1]; 3 mg/kg vs 10 mg/kg, ANOVA with post hoc Newman Keuls, p<0.05) | effect on amphetamine-induced motor activity (rats [1]; 10 mg/kg, 30 min before 1 mg/kg i.p. amphetamine, activity recorded 2 hr) | locomotor effect (rats [2]; 3 mg/kg, vs vehicle (75% DMSO)) | locomotor effect (rats [2]; 10 mg/kg) | catalepsy (rats [2]; 30 mg/kg ip, without a loss of right reflex) | effect on amphetamine-induced % PPI deficit (rats [3]) | receptor binding activity (in words) (5-HT2A receptor; stated jointly for 5-HT2A, 5-HT2C and D2 receptors)
500 nM | 8 nM | 50 nM | CN1CCc2c(c3cccc4c3n2-c2ccccc2CO4)C1 [Compound 9] | – | – | – | – | – | – | –
8 nM | 5 nM | 80 nM | O=C(CCCN1CCc2c(c3cccc4c3n2-c2ccccc2CS4)C1)c1ccc(F)cc1 [Compound 6] | – | – | – | – | – | – | –

Reference: patent US8367655B2, “Pyridoindolobenzox—and thiazepine derivatives and uses thereof” (Daya Drug Discoveries, Inc., priority 2009, dated 2013)
